Assay results published in publication PMC3656107, “Polymorphisms in the F8 Gene and MHC-II Variants as Risk Factors for the Development of Inhibitory Anti-Factor VIII Antibodies during the Treatment of Hemophilia A: A Computational Assessment” (PLoS Computational Biology, 2013).

Legend:
MHC-II DRB1*03:01 [1] = target: T1, MHC-II DRB1*03:01 (Homo sapiens, UniProt P01903+P01911, A100K/A102G/A103R/A169T/F55Y/I96L/K41T/L162R/M171V/P40S/Q125H/Q178H/Q39Y/R42S/S66N/T106N/T262R/W38E/Y61H); assay: Cell-free REVEAL class II binding assay; conditions: signal of test peptide as percentage of allele-specific positive control peptide, fluorescence, conformation-specific monoclonal antibody
T1 sequence (P01903 26-254 limits assumed, other chains not shown): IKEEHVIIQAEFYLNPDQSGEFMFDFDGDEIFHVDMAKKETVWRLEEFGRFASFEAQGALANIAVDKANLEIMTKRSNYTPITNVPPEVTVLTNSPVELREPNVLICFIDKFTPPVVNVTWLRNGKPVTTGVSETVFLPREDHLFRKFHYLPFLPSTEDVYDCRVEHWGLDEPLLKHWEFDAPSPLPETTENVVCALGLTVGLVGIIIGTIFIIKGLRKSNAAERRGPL
Summary of the method: (§1)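 A monoclonal antibody specific for the native peptide-loaded MHC-II conformation generated the fluorescence signal. Binding was quantified relative to a known T-cell epitope for each allele, reported as percent of its signal, with an intermediate-affinity binder included per run.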

MHC-II DRB1*04:01 [2] = target: T2, MHC-II DRB1*04:01 (Homo sapiens, UniProt P01903+P01911, A100K/A169T/F76Y/I96L/K127E/L162R/M171V/N62H/P40V/Q125Y/R42H/S133A/S149N/S66Y/V115G/V209L/W38E); assay: Cell-free REVEAL class II binding assay; conditions: signal of test peptide as percentage of allele-specific positive control peptide, fluorescence, conformation-specific monoclonal antibody
Summary of the method: as §1

MHC-II DRB1*07:01 [3] = target: T3, MHC-II DRB1*07:01 (Homo sapiens, UniProt P01903+P01911, A100R/A102G/A103Q/D57E/D86V/E43K/F76Y/K127E/L162R/M171V/P40G/Q125H/Q99D/R33Q/R42Y/R54Q/S133A/S66F/T210M/V115G/Y107V/Y59L/Y89S); assay: Cell-free REVEAL class II binding assay; conditions: signal of test peptide as percentage of allele-specific positive control peptide, fluorescence, conformation-specific monoclonal antibody
Summary of the method: as §1

MHC-II DRB1*11:01 [4] = target: T4, MHC-II DRB1*11:01 (Homo sapiens, UniProt P01903+P01911, A100R/A169T/A87E/I96F/K41T/L162R/M171V/P40S/Q125H/Q178H/Q39Y/Q99D/R42S/S66Y/T262R/V115G/W38E); assay: Cell-free REVEAL class II binding assay; conditions: signal of test peptide as percentage of allele-specific positive control peptide, fluorescence, conformation-specific monoclonal antibody
T4 sequence (P01903 26-254 limits assumed, other chains not shown): as above
Summary of the method: as §1

MHC-II DRB1*15:01 [5] = target: T5, MHC-II DRB1*15:01 (Homo sapiens, UniProt P01903+P01911); assay: Cell-free REVEAL class II binding assay; conditions: signal of test peptide as percentage of allele-specific positive control peptide, fluorescence, conformation-specific monoclonal antibody
T5 construct: purchased ProImmune
Summary of the method: as §1

MHC-II DRB1*15:03 [6] = target: T6, MHC-II DRB1*15:03 (Homo sapiens, UniProt P01903+P01911, Y59H); assay: Cell-free REVEAL class II binding assay; conditions: signal of test peptide as percentage of allele-specific positive control peptide, fluorescence, conformation-specific monoclonal antibody
T6 construct: purchased ProImmune
T6 sequence (P01903 26-254, other chains not shown): as the sequence (P01903 26-254 limits assumed, other chains not shown) above
Summary of the method: as §1

MHC-II DRB1*03:01 [7] = target: T1, MHC-II DRB1*03:01; assay: Cell-free REVEAL class II stability assay; conditions: half-life of peptide-MHC-II complex (h, capped at 120) x Binding Score / 100, conformational ELISA
Summary of the method: (§2)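 Readout is a conformational ELISA with anti-HLA antibody, scoring assembly or percent denaturation of peptide–MHC-II complexes sampled at timed points. Association ran 96 hr at 10°C. The reported stability score is half-life multiplied by Binding Score, divided by 100.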

MHC-II DRB1*04:01 [8] = target: T2, MHC-II DRB1*04:01; assay: Cell-free REVEAL class II stability assay; conditions: half-life of peptide-MHC-II complex (h, capped at 120) x Binding Score / 100, conformational ELISA
Summary of the method: as §2

MHC-II DRB1*07:01 [9] = target: T3, MHC-II DRB1*07:01; assay: Cell-free REVEAL class II stability assay; conditions: half-life of peptide-MHC-II complex (h, capped at 120) x Binding Score / 100, conformational ELISA
Summary of the method: as §2

MHC-II DRB1*11:01 [10] = target: T4, MHC-II DRB1*11:01; assay: Cell-free REVEAL class II stability assay; conditions: half-life of peptide-MHC-II complex (h, capped at 120) x Binding Score / 100, conformational ELISA
Summary of the method: as §2

MHC-II DRB1*15:01 [11] = target: T5, MHC-II DRB1*15:01; assay: Cell-free REVEAL class II stability assay; conditions: half-life of peptide-MHC-II complex (h, capped at 120) x Binding Score / 100, conformational ELISA
Summary of the method: as §2

MHC-II DRB1*15:03 [12] = target: T6, MHC-II DRB1*15:03; assay: Cell-free REVEAL class II stability assay; conditions: half-life of peptide-MHC-II complex (h, capped at 120) x Binding Score / 100, conformational ELISA
Summary of the method: as §2

Row | Sequence | Binding Score (MHC-II DRB1*03:01 [1]) [%] | Binding Score (MHC-II DRB1*04:01 [2]) [%] | Binding Score (MHC-II DRB1*07:01 [3]) [%] | Binding Score (MHC-II DRB1*11:01 [4]) [%] | Binding Score (MHC-II DRB1*15:01 [5]) [%] | Binding Score (MHC-II DRB1*15:03 [6]) [%] | Stability Index (MHC-II DRB1*03:01 [7]) | Stability Index (MHC-II DRB1*04:01 [8]) | Stability Index (MHC-II DRB1*07:01 [9]) | Stability Index (MHC-II DRB1*11:01 [10]) | Stability Index (MHC-II DRB1*15:01 [11]) | Stability Index (MHC-II DRB1*15:03 [12])
1 | YPHGITDVRPLYSRR [synthetic wild type FVIII 15 mer peptide, region of ns-SNP R484H] | 4.8 | 0.1 | 0.1 | 46.7 | 0.4 | 0.1 | 5.2 | 0.0 | 0.1 | 1.2 | 0.5 | 0.1
2 | YSLDGKKWQTYRGNS [synthetic wild type FVIII 15 mer peptide] | 0.0 | 0.9 | 0.0 | 23.5 | 11.8 | 0.2 | 0.0 | 0.1 | 0.0 | 1.1 | 3.0 | 0.0
3 | YTFKHKMVYEDTLTL [synthetic wild type FVIII 15 mer peptide] | 0.8 | 5.0 | 0.0 | 31.6 | 0.9 | 0.0 | 0.0 | 0.5 | 0.0 | 13.7 | 1.1 | 0.1
